Data taken from ChEMBL document CHEMBL4364295, “Discovery of a First-in-Class Receptor Interacting Protein 2 (RIP2) Kinase Specific Clinical Candidate, 2-((4-(Benzo[d]thiazol-5-ylamino)-6-(tert-butylsulfonyl)quinazolin-7-yl)oxy)ethyl Dihydrogen Phosphate, for the Treatment of Inflammatory Diseases” (J Med Chem, 2019).

How the values were obtained:
[1] = Drug uptake in po dosed Sprague-Dawley rat systemic circulation by LC/MS/MS analysis; type: ADME, organism-based; details: in vivo
[2] = Drug uptake in Han Wistar rat brain at 2 mg/kg, iv administered as infusion for 4 hrs; type: ADME, organism-based; details: in vivo
[3] = Drug uptake in Han Wistar rat colon at 2 mg/kg, iv administered as infusion for 4 hrs; type: ADME, organism-based; details: in vivo
[4] = Terminal half life in Sprague-Dawley rat assessed as 2-((4-(Benzo[d]thiazol-5-ylamino)-6-(tert-butylsulfonyl)quinazolin-7-yl)oxy)ethanol level at 2 mg/kg, po or 1.1 mg/kg, iv by LC/MS/MS analysis; type: ADME, organism-based; details: in vivo
[5] = Toxicity in Sprague-Dawley rat during 6 week study; details: in vivo, 1008 h
[6] = AUC in Sprague-Dawley rat assessed as 2-((4-(Benzo[d]thiazol-5-ylamino)-6-(tert-butylsulfonyl)quinazolin-7-yl)oxy)ethanol level at 2 mg/kg, po by LC/MS/MS analysis; type: ADME, organism-based; details: in vivo
[7] = Terminal half life in Beagle dog assessed as 2-((4-(Benzo[d]thiazol-5-ylamino)-6-(tert-butylsulfonyl)quinazolin-7-yl)oxy)ethanol level at 2 mg/kg, po or 0.9 mg/kg, iv by LC/MS/MS analysis; type: ADME, organism-based, Canis lupus familiaris; details: in vivo
[8] = biological target: Voltage-gated inwardly rectifying potassium channel KCNH2 (Homo sapiens, UniProt Q12809); assay: Inhibition of human ERG (1159 residues) expressed in CHOK1 cells at -80 mV holding potential measured after 5 mins by QPatch electrophysiology method; type: cell-based
Voltage-gated inwardly rectifying potassium channel KCNH2, sequence (Q12809 whole entry): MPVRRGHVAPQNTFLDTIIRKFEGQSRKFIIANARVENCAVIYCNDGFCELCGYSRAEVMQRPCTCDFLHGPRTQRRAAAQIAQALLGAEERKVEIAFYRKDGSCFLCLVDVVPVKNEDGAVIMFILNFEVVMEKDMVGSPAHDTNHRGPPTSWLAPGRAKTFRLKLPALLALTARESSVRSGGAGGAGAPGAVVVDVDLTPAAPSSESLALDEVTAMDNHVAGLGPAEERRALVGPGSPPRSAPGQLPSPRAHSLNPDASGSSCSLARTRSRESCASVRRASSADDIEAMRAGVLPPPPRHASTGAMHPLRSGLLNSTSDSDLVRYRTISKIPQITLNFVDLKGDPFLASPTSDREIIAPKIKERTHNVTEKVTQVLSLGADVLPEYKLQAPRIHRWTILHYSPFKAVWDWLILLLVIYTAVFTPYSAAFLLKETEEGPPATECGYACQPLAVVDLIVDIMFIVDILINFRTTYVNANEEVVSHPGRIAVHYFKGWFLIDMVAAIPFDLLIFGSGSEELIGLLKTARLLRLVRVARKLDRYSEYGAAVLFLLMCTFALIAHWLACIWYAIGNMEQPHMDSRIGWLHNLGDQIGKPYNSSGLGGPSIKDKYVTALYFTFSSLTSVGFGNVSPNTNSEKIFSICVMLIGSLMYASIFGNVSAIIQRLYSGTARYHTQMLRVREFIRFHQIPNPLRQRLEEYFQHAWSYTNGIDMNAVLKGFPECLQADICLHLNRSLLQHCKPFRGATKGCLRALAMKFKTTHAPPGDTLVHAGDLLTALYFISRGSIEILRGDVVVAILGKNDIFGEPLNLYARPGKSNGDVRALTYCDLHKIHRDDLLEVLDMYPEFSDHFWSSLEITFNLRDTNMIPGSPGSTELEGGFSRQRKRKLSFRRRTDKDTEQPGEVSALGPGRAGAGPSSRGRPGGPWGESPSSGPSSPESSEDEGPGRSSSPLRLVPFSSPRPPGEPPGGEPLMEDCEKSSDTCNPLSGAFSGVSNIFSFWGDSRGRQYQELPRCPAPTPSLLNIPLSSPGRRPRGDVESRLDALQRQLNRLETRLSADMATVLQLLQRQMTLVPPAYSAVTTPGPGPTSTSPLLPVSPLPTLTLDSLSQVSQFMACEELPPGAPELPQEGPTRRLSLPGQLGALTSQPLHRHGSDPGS

[9] = Oral bioavailability in Gottingen minipig assessed as 2-((4-(Benzo[d]thiazol-5-ylamino)-6-(tert-butylsulfonyl)quinazolin-7-yl)oxy)ethanol level at 1 mg/kg by LC/MS/MS analysis; type: ADME, organism-based, Sus scrofa; details: pig, in vivo
[10] = biological target: T1, Ephrin type-A receptor 6 (Homo sapiens) (UniProt Q9UF33); assay: Inhibition of human EPHA6 at 1 uM using poly[Glu:Tyr] (4:1) as substrate in presence of [gamma-33P]ATP relative to control
T1 sequence (whole entry): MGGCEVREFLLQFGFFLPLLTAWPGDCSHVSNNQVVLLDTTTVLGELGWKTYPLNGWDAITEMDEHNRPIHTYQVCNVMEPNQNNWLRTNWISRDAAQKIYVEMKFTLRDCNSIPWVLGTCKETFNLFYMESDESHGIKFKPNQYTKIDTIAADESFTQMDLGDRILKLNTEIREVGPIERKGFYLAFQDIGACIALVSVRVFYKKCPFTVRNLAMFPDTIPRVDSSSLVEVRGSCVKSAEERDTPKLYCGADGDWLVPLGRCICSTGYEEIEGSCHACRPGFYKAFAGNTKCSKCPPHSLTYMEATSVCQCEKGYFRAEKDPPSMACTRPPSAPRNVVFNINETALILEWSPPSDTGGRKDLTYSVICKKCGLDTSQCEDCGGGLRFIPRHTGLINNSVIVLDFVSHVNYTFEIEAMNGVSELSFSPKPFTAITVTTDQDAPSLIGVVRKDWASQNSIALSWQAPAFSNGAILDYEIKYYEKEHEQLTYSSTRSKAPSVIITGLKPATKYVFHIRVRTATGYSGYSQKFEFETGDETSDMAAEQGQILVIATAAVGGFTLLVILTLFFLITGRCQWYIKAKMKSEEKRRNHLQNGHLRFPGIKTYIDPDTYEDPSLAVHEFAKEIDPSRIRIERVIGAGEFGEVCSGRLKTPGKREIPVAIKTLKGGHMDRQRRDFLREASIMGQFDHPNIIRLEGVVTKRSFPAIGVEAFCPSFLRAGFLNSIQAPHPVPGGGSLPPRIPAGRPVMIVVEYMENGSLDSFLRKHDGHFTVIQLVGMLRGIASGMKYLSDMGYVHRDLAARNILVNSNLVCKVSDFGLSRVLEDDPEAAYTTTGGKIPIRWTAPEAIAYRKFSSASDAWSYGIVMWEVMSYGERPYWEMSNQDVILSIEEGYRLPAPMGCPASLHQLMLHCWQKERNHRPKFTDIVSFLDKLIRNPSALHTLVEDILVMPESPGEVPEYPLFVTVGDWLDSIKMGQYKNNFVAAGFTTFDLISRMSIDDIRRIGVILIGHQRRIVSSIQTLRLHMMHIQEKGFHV

Toll-like receptor 2 = Toll-like receptor 2 (Homo sapiens, UniProt O60603); assay: Inhibition of TLR2 in HEK293 cells assessed as reduction in Pam2CSK4-induced IL8 production; type: cell-based
Toll-like receptor 2, sequence (O60603 whole entry): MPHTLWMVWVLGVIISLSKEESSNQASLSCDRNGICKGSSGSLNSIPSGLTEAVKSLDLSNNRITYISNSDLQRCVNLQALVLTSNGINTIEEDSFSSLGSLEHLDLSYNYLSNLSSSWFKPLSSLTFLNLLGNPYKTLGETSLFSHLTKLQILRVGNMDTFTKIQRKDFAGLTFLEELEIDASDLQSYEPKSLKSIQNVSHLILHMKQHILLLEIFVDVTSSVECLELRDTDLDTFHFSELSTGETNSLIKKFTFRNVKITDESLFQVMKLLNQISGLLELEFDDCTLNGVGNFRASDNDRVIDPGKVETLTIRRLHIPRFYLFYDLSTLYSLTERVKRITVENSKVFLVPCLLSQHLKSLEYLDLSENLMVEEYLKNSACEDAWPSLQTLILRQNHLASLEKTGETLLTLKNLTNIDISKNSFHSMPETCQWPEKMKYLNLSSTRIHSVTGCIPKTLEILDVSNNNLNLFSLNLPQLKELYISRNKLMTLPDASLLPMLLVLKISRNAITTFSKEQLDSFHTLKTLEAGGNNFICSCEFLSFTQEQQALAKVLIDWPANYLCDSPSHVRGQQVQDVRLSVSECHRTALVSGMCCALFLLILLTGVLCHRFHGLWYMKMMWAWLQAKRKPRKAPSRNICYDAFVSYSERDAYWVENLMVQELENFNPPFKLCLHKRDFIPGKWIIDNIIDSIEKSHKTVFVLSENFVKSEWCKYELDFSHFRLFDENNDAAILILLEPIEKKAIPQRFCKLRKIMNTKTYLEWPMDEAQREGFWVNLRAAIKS

[11] = Cmax in Sprague-Dawley rat at 2 mg/kg, po by LC/MS/MS analysis; type: ADME, organism-based; design: dose 2 mg/kg, route oral; details: in vivo
[12] = biological target: Receptor-interacting serine/threonine-protein kinase 2 (Homo sapiens, UniProt O43353); assay: Inhibition of fluorescent-labelled ligand binding to human RIP2K preincubated for 10 mins followed by fluorescent-labelled ligand addition and measured after 10 mins by fluorescence polarization assay
Receptor-interacting serine/threonine-protein kinase 2, sequence (O43353 whole entry): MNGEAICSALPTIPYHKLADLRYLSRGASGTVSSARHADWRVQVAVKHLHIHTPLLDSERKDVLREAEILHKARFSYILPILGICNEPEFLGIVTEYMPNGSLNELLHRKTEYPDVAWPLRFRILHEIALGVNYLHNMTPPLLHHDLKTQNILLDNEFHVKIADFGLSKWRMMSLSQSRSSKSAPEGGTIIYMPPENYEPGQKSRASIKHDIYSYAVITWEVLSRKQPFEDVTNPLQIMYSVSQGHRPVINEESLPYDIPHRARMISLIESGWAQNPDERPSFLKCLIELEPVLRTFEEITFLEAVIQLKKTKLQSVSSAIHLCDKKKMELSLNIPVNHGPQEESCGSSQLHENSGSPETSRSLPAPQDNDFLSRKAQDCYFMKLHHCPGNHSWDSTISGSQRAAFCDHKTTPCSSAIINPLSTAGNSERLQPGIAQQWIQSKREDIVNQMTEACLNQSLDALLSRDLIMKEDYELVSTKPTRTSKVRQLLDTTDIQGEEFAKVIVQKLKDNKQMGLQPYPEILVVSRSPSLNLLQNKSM

[13] = Oral bioavailability in Gottingen minipig at 1 mg/kg by LC/MS/MS analysis; type: ADME, organism-based, Sus scrofa; details: pig, in vivo
[14] = Unbound fraction in rat blood; type: ADME, tissue-based
[15] = biological target: Vascular endothelial growth factor receptor 3 (Homo sapiens) (UniProt P35916); assay: Inhibition of human VEGFR3 at 1 uM using poly[Glu:Tyr] (4:1) as substrate in presence of [gamma-33P]ATP relative to control
Vascular endothelial growth factor receptor 3 (Homo sapiens), sequence (P35916 whole entry): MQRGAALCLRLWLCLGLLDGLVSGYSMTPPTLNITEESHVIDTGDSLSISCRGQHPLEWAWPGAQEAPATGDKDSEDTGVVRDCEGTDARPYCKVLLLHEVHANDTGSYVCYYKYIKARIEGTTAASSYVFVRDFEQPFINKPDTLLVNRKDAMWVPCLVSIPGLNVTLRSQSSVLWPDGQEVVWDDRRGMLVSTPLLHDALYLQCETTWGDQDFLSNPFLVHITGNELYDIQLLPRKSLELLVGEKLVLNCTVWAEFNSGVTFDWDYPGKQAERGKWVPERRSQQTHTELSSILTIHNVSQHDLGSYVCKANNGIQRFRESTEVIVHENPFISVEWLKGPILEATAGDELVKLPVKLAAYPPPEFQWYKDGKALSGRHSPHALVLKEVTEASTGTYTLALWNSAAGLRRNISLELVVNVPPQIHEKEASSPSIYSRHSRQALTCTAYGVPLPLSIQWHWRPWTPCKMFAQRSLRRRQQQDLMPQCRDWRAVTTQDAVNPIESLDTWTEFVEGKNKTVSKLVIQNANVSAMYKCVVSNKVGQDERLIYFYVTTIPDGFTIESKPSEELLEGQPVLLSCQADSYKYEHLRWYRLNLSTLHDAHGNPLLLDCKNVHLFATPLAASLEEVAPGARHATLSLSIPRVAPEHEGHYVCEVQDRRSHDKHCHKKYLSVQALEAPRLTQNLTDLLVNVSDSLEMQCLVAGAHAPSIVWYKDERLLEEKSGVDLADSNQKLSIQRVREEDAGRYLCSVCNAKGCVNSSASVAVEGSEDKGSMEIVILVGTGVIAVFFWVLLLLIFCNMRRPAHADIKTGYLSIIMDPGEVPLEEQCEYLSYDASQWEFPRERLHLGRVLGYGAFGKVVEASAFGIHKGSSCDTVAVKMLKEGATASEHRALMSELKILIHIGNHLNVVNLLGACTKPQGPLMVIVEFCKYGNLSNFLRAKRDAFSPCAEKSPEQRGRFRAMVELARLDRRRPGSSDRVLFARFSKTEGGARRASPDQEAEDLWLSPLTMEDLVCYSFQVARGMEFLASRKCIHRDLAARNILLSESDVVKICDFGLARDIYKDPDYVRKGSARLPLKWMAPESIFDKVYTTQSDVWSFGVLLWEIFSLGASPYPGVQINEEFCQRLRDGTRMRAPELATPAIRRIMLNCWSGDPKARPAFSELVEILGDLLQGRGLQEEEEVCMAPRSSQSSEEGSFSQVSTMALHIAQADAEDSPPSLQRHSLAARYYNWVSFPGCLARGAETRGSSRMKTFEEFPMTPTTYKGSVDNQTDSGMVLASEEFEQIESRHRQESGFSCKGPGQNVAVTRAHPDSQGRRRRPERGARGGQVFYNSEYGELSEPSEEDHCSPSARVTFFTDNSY

[16] = Unbound fraction in minipig blood; type: ADME, tissue-based, Sus scrofa; details: pig

Drug uptake [1] | Drug uptake [2] | Drug uptake [3] | beta t1/2 [4] [h] | AUC [6] [ng·h/mL] | beta t1/2 [7] [h] | F [9] [%] | inhibition [10] [%] | IC50 (Toll-like receptor 2) [µM] | Cmax [11] [ng/mL] | IC50 [12] [µM] | F [13] [%] | fraction unbound [14] | inhibition [15] [%] | fraction unbound [16] | Compound | Activity [5] | IC50 [8] [µM]
Not Active | Not Active | Not Active | 2.4 | 580 | 2.9 | 58 | – | – | – | – | – | – | – | – | CC(C)(C)S(=O)(=O)c1cc2c(Nc3ccc4scnc4c3)ncnc2cc1OCCOP(=O)(O)O.[CaH2] | Non-Toxic | > 30
Not Active | – | – | – | 460 | – | – | 70 to 90 | > 10 | 120 | 0.005 | 26 | 0.11 | > 90 | 0.068 | CC(C)(C)S(=O)(=O)c1cc2c(Nc3ccc4scnc4c3)ncnc2cc1OCCO | – | > 30
